Here are results for four molecules from paper PMC11836358 (Nature Communications, 2025).

Data set [1] has as its target T1, BmrA (Bacillus subtilis, UniProt O06967, E504A). The data set is described as follows: biochemical.
For data set [2], the target named is T1, BmrA. Kind of data set: biochemical. The source holds these as a separate data set.
Data set [3] concerns the molecule itself. Kind of data set: cryo-EM structure; purified BmrA E504A at 25 µM in 20 mM HEPES-NaOH pH 7.5, 100 mM NaCl, DDM/sodium cholate; 0, 25, 70, 100 µM or 5 mM ATP-Mg2+, with or without 100 µM R6G, or with Hœchst33342; inward-facing and outward-facing dimers reconstructed.

Like-named read-outs stand apart in the source and are kept apart here.

In turn, `COc1cccc2c1C(=O)c1c(O)c3c(c(O)c1C2=O)C[C@@](O)(C(=O)CO)C[C@@H]3O[C@H]1C[C@H](N)[C@H](O)[C@H](C)O1` [Doxorubicin] returned a Kd at BmrA [1] of 7.3 ± 2.2 µM. Still for that read-out and setting: the figure for `CCOc1ccc(-c2nc3cc(-c4nc5cc(N6CCN(C)CC6)ccc5[nH]4)ccc3[nH]2)cc1` [Hœchst33342] is 9.6 ± 1.3 µM. With `Nc1ncnc2c1ncn2[C@@H]1O[C@H](COP(=O)(O)OP(=O)(O)OP(=O)(O)O)[C@@H](O)[C@H]1O` [ATP], on BmrA [2], the Kd is 154 ± 49 µM.

B1: BmrA E504A mutant (Bacillus subtilis multidrug ABC transporter) (natural protein)
chain: MPTKKQKSKSKLKPFFALVRRTNPSYGKLAFALALSVVTTLVSLLIPLLTKQLVDGFSMSNLSGTQIGLIALVFFVQAGLSAYATYALNYNGQKIISGLRELLWKKLIKLPVSYFDTNASGETVSRVTNDTMVVKELITTHISGFITGIISVIGSLTILFIMNWKLTLLVLVVVPLAALILVPIGRKMFSISRETQDETARFTGLLNQILPEIRLVKASNAEDVEYGRGKMGISSLFKLGVREAKVQSLVGPLISLVLMAALVAVIGYGGMQVSSGELTAGALVAFILYLFQIIMPMGQITTFFTQLQKSIGATERMIEILAEEEEDTVTGKQIENAHLPIQLDRVSFGYKPDQLILKEVSAVIEAGKVTAIVGPSGGGKTTLFKLLERFYSPTAGTIRLGDEPVDTYSLESWREHIGYVSQESPLMSGTIRENICYGLERDVTDAEIEKAAEMAYALNFIKELPNQFDTEVGERGIMLSGGQRQRIAIARALLRNPSILMLDAATSSLDSQSEKSVQQALEVLMEGRTTIVIAHRLSTVVDADQLLFVEKGEITGRGTHHELMASHGLYRDFAEQQLKMNADLENKAG
notes: BmrA, efflux pump of Bacillus subtilis, type-IV MDR ABC transporter; each monomer has 1 TMD and 1 NBD; Homodimer; the plasmid pET15b encodes the mutant fused to a 6-histidine tag at the N-terminal; also called E504A^apo; E504A^R6G; source: E. coli C43(DE3)∆AcrB, pET15b; membranes solubilised in Triton X100, purified (two Ni-NTA steps, Superdex 200) in DDM/sodium cholate
In the case of B1, the binding result in data set [3] is given as “binds”.

Broadly, the Kd is a measure of binding affinity in units of concentration. The low end stands for tighter binding, the high end for weaker binding.
